Measured values: patent US20050202078A1, “Vesicle-encapsulated corticosteroids for the treatment of cancer” (priority 2002, published 2005)

What was measured:
[1] = test system: C26 murine colon carcinoma; test: Tumor growth inhibition, effect of tumor size (time of injection), C26 model; type: in vivo, Balb/c mice
Method: (§1) FIG. 3: Effect of tumor size on anti-tumor effects of free or liposomal PLP in B16- or C26-bearing mice. Mice received either single or multiple injections with 20 mg/kg PLP of the indicated formulations. Arrows indicate treatment. Mean±S.D. is reported. N=5 mice/experimental group; and
(§2) B16 murine melanoma and C26 murine colon carcinoma cells were cultured at 37° C. in a 5% CO2-containing humidified atmosphere in DMEM medium (Gibco, Breda, The Netherlands) containing 10% (v/v) fetal calf serum supplemented with 2 mM L-glutamine, 100 IU/ml penicillin, 100 μg/ml streptomycin and 0.25 μg/ml amphotericin B (Gibco).
(§3) As a reference, B16F10 tumors became palpable around seven days and C26 tumors around eleven days after tumor cell inoculation. Tumor size was measured regularly and tumor volume was calculated as described above.
(§4) To determine the effect of time of injection of free or liposomal PLP on tumor growth inhibition, the formulations were injected at a dose of 20 mg/kg at day 1, 7 and 14 or single injection at day 7 or day 14. See, in this light, FIG. 3 showing the results.

B16 murine melanoma [2] = test: Tumor growth inhibition, effect of tumor size (time of injection), B16 model; type: in vivo, C57B1/6 mice
Method: as §1, §2, §3, §4

B16 murine melanoma [3] = test: Tumor growth inhibition, effect of dose, B16 model; type: in vivo, C57B1/6 mice; settings: 20 mg/kg or 50 mg/kg, single injection; one week later
Method: (§5) FIG. 2: Effect of dose of free or liposomal PLP on tumor growth in B16- or C26-bearing mice. Mice received a single injection with the indicated dose and formulation of PLP on the day tumors became palpable. Tumor volume one week later is reported. Mean±S.D. N=5 mice/experimental group;
as §2
(§6) Tissue distribution of ^111In-labeled PEG liposomes in tumor-bearing mice. 1×10^5 B 16 or C26 cells were inoculated subcutaneously in the flank of C57B1/6 of Balb/c mice, respectively. […] At 6 hours and 24 hours after injection, animals were sacrificed, a blood sample was taken, and tumor, lung, liver, spleen and kidneys were dissected, weighed and radioactivity was counted. […]
(§7) Mice received a single intravenous injection of an indicated dose of free PLP or liposomal PLP at the time when the tumor became palpable. At seven days after treatment, tumor size was measured and tumor volume calculated according to the equation V=0.52×a^2×b, wherein a is the smallest and b is the largest superficial diameter.

[4] = test system: C26 murine colon carcinoma; test: Tumor growth inhibition, effect of dose, C26 model; type: in vivo, Balb/c mice; settings: 20 mg/kg or 50 mg/kg, single injection; one week later
Method: as §5, §2, §6, §7

[5] = single injection 20 mg/kg at day 7

prednisolone disodium phosphate [free PLP]
tumor growth inhibition between day 1 and day 7 ([1]; 20 mg/kg i.v. at day 1): Neither liposomal PLP nor free PLP inhibited tumor growth | tumor growth inhibition, multiple injections ([1]; 20 mg/kg i.v. at day 1, 7 and 14): did not inhibit tumor growth | significance of tumor volume compared to controls [1, 5]: not significantly smaller with either treatment | tumor growth inhibition between day 1 and day 7 (B16 murine melanoma [2]; 20 mg/kg i.v. at day 1): Neither liposomal PLP nor free PLP inhibited tumor growth | tumor growth inhibition as compared to controls, between day 7 and day 14 (B16 murine melanoma [2]; 20 mg/kg i.v. at day 1 and second injection at day 7, p<0.05): did not reduce tumor volume | significantly smaller tumor volume after single injection (B16 murine melanoma [2]; [5]): only seen after treatment with liposomal PLP | tumor volume compared to buffer-treated control animals (B16 murine melanoma [3]): did not result in significantly different tumor volumes | tumor volume compared to buffer-treated control animals [4]: did not result in significantly different tumor volumes
